From patent US6818644B1, “Substituted piperazine derivatives, the preparation thereof and their use as medicaments” (Boehringer Ingelheim Pharm GmbH & Co, KG, priority 1999, dated 2004) come the findings set out here.

`O=C(NCC(F)(F)F)C1(CCCCN2CCN(c3ccccn3)CC2)c2ccccc2-c2ccccc21` [Example 20, 9-{4-[4-Pyridin-2-yl-piperazin-1-yl]-butyl}-9H-fluorene-9-carboxylic acid-(2,2,2-trifluoroethyl)-amide]: the melting point stood at 123 °C. Under `O=C(NCC(F)(F)F)C1(CCCCN2CCN(c3ccc(F)cc3)CC2)c2ccccc2-c2ccccc21` [Example 9, 9-{4-[4-(4-Fluorophenyl)-piperazin-1-yl]-butyl}-9H-fluorene-9-carboxylic acid-(2,2,2-trifluoroethyl)-amide] stands 116 to 117 °C; under `O=C(NCC(F)(F)F)C1(CCCCN2CCN(c3cc(-c4ccccc4)ccn3)CC2)c2ccccc2-c2ccccc21` [Example 29, 9-{4-[4-(4-phenyl-pyridin-2-yl)-piperazin-1-yl]-butyl}-9H-fluorene-9-carboxylic acid-(2,2,2-trifluoroethyl)-amide], 59 °C.

`COc1cccc(N2CC(C)N(CCCCC3(C(=O)NCc4ccc(F)cc4)c4ccccc4-c4ccccc43)C(C)C2)n1` (centres unmarked) [Example 37, 9-{4-[4-(6-methoxy-pyridin-2-yl)-2,6-dimethyl-piperazin-1-yl]-butyl}-9H-fluorene-9-carboxylic acid-4-fluorobenzyl-amide]: the melting point lay within 78 to 79 °C. Under `O=C(NCC(F)(F)F)C1(CCCCN2CCN(c3ccc(C(F)(F)F)cn3)CC2)c2ccccc2-c2ccccc21` [Example 27, 9-{4-[4-(5-trifluoromethyl-pyridin-2-yl)-piperazin-1-yl]-butyl}-9H-fluorene-9-carboxylic acid-(2,2,2-trifluoroethyl)-amide] stands 147 to 149 °C; under `O=C(NCC(F)(F)F)C1(CCCCN2CCN(c3ccc(OCc4ccccc4)cc3)CC2)c2ccccc2-c2ccccc21` [Example 6, 9-{4-[4-(4-Benzyloxy-phenyl)-piperazin-1-yl]-butyl}-9H-fluorene-9-carboxylic acid-(2,2,2-trifluoroethyl)-amide], 180 °C; under `O=C(NCC(F)(F)F)C1(CCCCN2CCN(c3cccc(-c4ccccc4)n3)CC2)c2ccccc2-c2ccccc21` [Example 28, 9-{4-[4-(6-phenyl-pyridin-2-yl)-piperazin-1-yl]-butyl}-9H-fluorene-9-carboxylic acid-(2,2,2-trifluoroethyl)-amide], 63 °C.

The molecule `O=C(NCC(F)(F)F)C1(CCCCN2CCN(c3ccc([N+](=O)[O-])cc3)CC2)c2ccccc2-c2ccccc21` [Example 17, 9-{4-[4-(4-nitro-phenyl)-piperazin-1-yl]-butyl}-9H-fluorene-9-carboxylic acid-(2,2,2-trifluoroethyl)-amide] returned a melting point of 146 °C. Molecule `O=C(NCC(F)(F)F)C1(CCCCN2CCN(c3ccc(Cl)c(Cl)c3)CC2)c2ccccc2-c2ccccc21` [Example 12, 9-{4-[4-(3,4-dichlorophenyl)-piperazin-1-yl]-butyl}-9H-fluorene-9-carboxylic acid-(2,2,2-trifluoroethyl)-amide] yielded a melting point of 122 °C. The same measure for `COc1cccc(N2CCN(CCCCC3(C(=O)NCC(F)(F)F)c4ccccc4Oc4ccccc43)CC2)n1` [Example 35, 9-{4-[4-(6-methoxy-pyridin-2-yl)-piperazin-1-yl]-butyl}-9H-xanthene-9-carboxylic acid-(2,2,2-trifluoroethyl)-amide]: 122 °C; for `Cl.Nc1ccc(N2CCN(CCCCC3(C(=O)NCC(F)(F)F)c4ccccc4-c4ccccc43)CC2)cc1`: above 270 °C; for `O=C(NCC(F)(F)F)C1(CCCCN2CCN(c3cccc(Cl)c3)CC2)c2ccccc2-c2ccccc21` [Example 5, 9-{4-[4-(3-Chloro-phenyl)-piperazin-1-yl]-butyl}-9H-fluorene-9-carboxylic acid-(2,2,2-trifluoroethyl)-amide]: 122 °C.

The molecule `O=C(NCC(F)(F)F)C1(CCCCN2CCN(c3ccc(Cl)c(C(F)(F)F)c3)CC2)c2ccccc2-c2ccccc21` [Example 10, 9-{4-[4-(4-Chloro-3-trifluoromethyl-phenyl)-piperazin-1-yl]-butyl}-9H-fluorene-9-carboxylic acid-(2,2,2-trifluoroethyl)-amide] came in with a melting point of 96 °C. Take `COc1ccc(N2CCN(CCCCC3(C(=O)NCC(F)(F)F)c4ccccc4-c4ccccc43)CC2)cc1` [Example 13, 9-{4-[4-(4-methoxy-phenyl)-piperazin-1-yl]-butyl}-9H-fluorene-9-carboxylic acid-(2,2,2-trifluoroethyl)-amide]: the melting point was 120 °C. `Cc1cccc(N2CCN(CCCCC3(C(=O)NCC(F)(F)F)c4ccccc4-c4ccccc43)CC2)n1` [Example 25, 9-{4-[4-(6-methyl-pyridin-2-yl)-piperazin-1-yl]-butyl}-9H-fluorene-9-carboxylic acid-(2,2,2-trifluoroethyl)-amide] displayed a melting point of 85 to 87 °C.

The molecule `O=C(NCC(F)(F)F)C1(CCCCN2CCN(c3ccc(Cl)cc3)CC2)c2ccccc2-c2ccccc21` [Example 4, 9-{4-[4-(4-Chloro-phenyl)-piperazin-1-yl]-butyl}-9H-fluorene-9-carboxylic acid-(2,2,2-trifluoroethyl)-amide] yielded a melting point of 166 °C. The same measure for `COc1cccc(N2CC(C)N(CCCCC3(C(=O)NCC(F)(F)F)c4ccccc4-c4ccccc43)C(C)C2)n1` (centres unmarked) [Example 36, 9-{4-[4-(6-methoxy-pyridin-2-yl)-2,6-dimethyl-piperazin-1-yl]-butyl}-9H-fluorene-9-carboxylic acid-(2,2,2-trifluoroethyl)-amide]: 122 °C. The same measure for `Cc1cccc(N2CCN(CCCCC3(C(=O)NCc4ccc(F)cc4)c4ccccc4-c4ccccc43)CC2)n1` [Example 26, 9-{4-[4-(6-methyl-pyridin-2-yl)-piperazin-1-yl]-butyl}-9H-fluorene-9-carboxylic acid-4-fluorobenzyl-amide]: 96 to 97 °C; for `O=C(NCC(F)(F)F)C1(CCCCN2CCN(c3ccc(-c4ccccc4)cc3)CC2)c2ccccc2-c2ccccc21` [Example 3, 9-[4-(4-biphenyl-4-yl-piperazin-1-yl)-butyl]-9H-fluorene-9-carboxylic acid-(2,2,2-trifluoroethyl)-amide]: 209 to 211 °C; for `O=C(NCC(F)(F)F)C1(CCCCN2CCN(c3ccc(C(F)(F)F)cc3)CC2)c2ccccc2-c2ccccc21` [Example 7, 9-{4-[4-(4-Trifluoromethyl-phenyl)-piperazin-1-yl]-butyl}-9H-fluorene-9-carboxylic acid-(2,2,2-trifluoroethyl)-amide]: 176 °C.

The melting point is the temperature of the solid-liquid transition.
